Source: patent US4772586A, “Novel derivatives of arginine vasopressin antagonists” (Medical College of Ohio, priority 1986, dated 1988)
*1 amine or outer side, *2 acyl side, *3 side chain or, on linkers, in order; H or OH if unused. Where a SMILES comes first, the peptide text is derived from it. Bridges are numbered along the chain shown (N, C = ends). [ ]: non-standard residue; d: D form. The star is where a group is joined. Ethylenediamine = C(CN[*:2])N[*:1]; X1 = O=C(CC1(S[*:2])CCCCC1)[*:1]; NHBu = CCCCN*

Legend:
[1] = test system: antidiuretic response to arginine vasopressin; test: Antagonism of the antidiuretic response to arginine vasopressin (Anti-ADH); assay type: in vivo, rats; settings: for Anti-ADH Potency pA2: estimated in vivo pA2; for Anti-ADH pA2: Table 1, estimated in vivo pA2 = negative log of effective dose divided by volume of distribution (67 ml/kg)
Summary of the method: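 Compounds were given intravenously to ethanol-anesthetized, water-loaded rats, followed by arginine vasopressin challenge. Effective dose (nmol/kg) is the antagonist dose that reduces the response to 2x units of agonist, given 20 min later, to the response to 1x units. pA2 is the negative log of effective dose divided by an estimated 67 ml/kg distribution volume.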

[2] = test system: vasopressor response to arginine vasopressin; test: Antagonism to the vasopressor response (Anti-VP); assay type: in vivo; settings: for Anti-VP Potency pA2 / Anti-VP pA2: estimated in vivo pA2; for Anti-VP pA2: Table 1
Summary of the method: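 In vivo antagonism of arginine vasopressin pressor response per Dyckes et al. Effective dose (nmol/kg) is the antagonist dose making the response to 2x agonist units, injected 20 min later, equal that to 1x units. pA2 is the negative log of effective dose divided by 67 ml/kg distribution volume.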

Compound | Anti-ADH Potency pA2 ([1]; Table 4) | Anti-VP Potency pA2 ([2]; Table 4, ^+ = mixed) | Anti-ADH pA2 [1] | Anti-VP pA2 [2] | also measured
CCOc1ccc(C[C@H]2NC(=O)CC3(CCCCC3)SSC[C@@H](C(=O)N3CCC[C@H]3C(=O)N[C@@H](CCCNC(=N)N)C(=O)NCC(=O)NC)NC(=O)[C@H](CC(N)=O)NC(=O)[C@H](C(C)C)NC(=O)[C@H](Cc3ccccc3)NC2=O)cc1 [[1-(beta-mercapto-beta,beta-cyclopentamethylenepropionic acid), 2-D-(O-ethyl)tyrosine, 4-valine, 9-glycine-N-methylamide]-arginine vasopressin] ([dY](Et)FVNCPRG-NHMe; linker N-5 via X1) | 7.58 ± 0.06 | 7.71 ± 0.04 | – | – | –
COc1ccc(C[C@@H]2NC(=O)CC3(CCCCC3)SSC[C@@H](C(=O)N3CCC[C@H]3C(=O)N[C@@H](CCCNC(=N)N)C(=O)O)NC(=O)[C@H](CC(N)=O)NC(=O)[C@H](CCC(N)=O)NC(=O)[C@H](Cc3ccccc3)NC2=O)cc1 [desGly(NH2)^9 d(CH2)5 [Tyr(Me)^2]AVP] (Y(Me)FQNCPR-OH; linker N-5 via X1) | – | – | ~ 5.4 | 8.46 ± 0.05 | –
COc1ccc(C[C@@H]2NC(=O)CC3(CCCCC3)SSC[C@@H](C(=O)N3CCC[C@H]3C(=O)N[C@@H](CCCNC(=N)N)C(=O)N[C@@H](C)C(N)=O)NC(=O)[C@H](CC(N)=O)NC(=O)[C@H](CCC(N)=O)NC(=O)[C@H](Cc3ccccc3)NC2=O)cc1 [Example 9(b), [1-(beta-mercapto-beta,beta-cyclopentamethylenepropionic acid), 2-(O-methyl)tyrosine, 9-alaninamide]-argine vasopressin] (Y(Me)FQNCPRA-NH2; linker N-5 via X1) | – | – | – | – | Anti-ADH: pA2 ([1]; text after Table 2): about 6.0; Anti-VP: pA2 ([2]; text after Table 2): 8.74±0.08
CCNC(=O)CNC(=O)[C@H](CCCNC(=N)N)NC(=O)[C@@H]1CCCN1C(=O)[C@@H]1CSSC2(CCCCC2)CC(=O)N[C@H]([C@H](C)CC)C(=O)N[C@@H](Cc2ccccc2)C(=O)N[C@@H]([C@@H](C)CC)C(=O)N[C@@H](CC(N)=O)C(=O)N1 [[1-(beta-mercapto-beta,beta-cyclopentamethylenepropionic acid), 2-D-isoleucine, 4-isoleucine, 9-glycine-N-ethylamide]-arginine vasopressin] ([dI]FINCPRG-NHEt; linker N-5 via X1) | 7.86 ± 0.05 | 6.54 ± 0.11 | – | – | –
CNC(=O)[C@H](CCCNC(=N)N)NC(=O)[C@@H]1CCCN1C(=O)[C@@H]1CSSC2(CCCCC2)CC(=O)N[C@@H](Cc2ccc(OC)cc2)C(=O)N[C@@H](Cc2ccccc2)C(=O)N[C@@H](CCC(N)=O)C(=O)N[C@@H](CC(N)=O)C(=O)N1 [[1-(beta-mercapto-beta,beta-cyclopentamethylenepropionic acid), 2-(O-methyl)tyrosine, 8-arginine-N-methylamide, 9-desglycinamide] vasopressin] (Y(Me)FQNCPR-NHMe; linker N-5 via X1) | ~ 5.9 | 8.73 ± 0.02 | – | – | –
CCOc1ccc(C[C@@H]2NC(=O)CC3(CCCCC3)SSC[C@@H](C(=O)N3CCC[C@H]3C(=O)N[C@@H](CCCNC(=N)N)C(=O)NCC(N)=O)NC(=O)[C@H](CC(N)=O)NC(=O)[C@H](C(C)C)NC(=O)[C@H](Cc3ccccc3)NC2=O)cc1 [d(CH2)5 [Tyr(Et)]^2 VAVP, [1-(beta-mercapto-beta,beta-cyclopentamethylenepropionic acid), 2-(O-ethyl)tyrosine, 4-valine]-arginine vasopressin, reference compound] (Y(Et)FVNCPRG-NH2; linker N-5 via X1) | – | – | 7.57 ± 0.06 | 8.16 ± 0.09 | –
CC(C)[C@@H]1NC(=O)[C@H](Cc2ccccc2)NC(=O)[C@@H](Cc2ccccc2)NC(=O)CC2(CCCCC2)SSC[C@@H](C(=O)N2CCC[C@H]2C(=O)N[C@@H](CCCNC(=N)N)C(=O)NCC(N)=O)NC(=O)[C@H](CC(N)=O)NC1=O [d(CH2) 5 [D-Phe^2]VAVP, [1-(beta-mercapto-beta,beta-cyclopentamethylenepropionic acid), 2-D-phenylalanine, 4-valine]-arginine vasopressin, reference compound] ([dF]FVNCPRG-NH2; linker N-5 via X1) | – | – | 8.06 ± 0.09 | 8.06 ± 0.03 | –
CCCCNC(=O)CNC(=O)[C@H](CCCNC(=N)N)NC(=O)[C@@H]1CCCN1C(=O)[C@@H]1CSSC2(CCCCC2)CC(=O)N[C@H](Cc2ccccc2)C(=O)N[C@@H](Cc2ccccc2)C(=O)N[C@@H]([C@@H](C)CC)C(=O)N[C@@H](CC(N)=O)C(=O)N1 [[1-(beta-mercapto-beta,beta-cyclopentamethylenepropionic acid), 2-D-phenylalanine, 4-isoleucine, 9-glycine-N-(n-butyl)amide]-arginine vasopressin] ([dF]FINCPRG-NHBu; linker N-5 via X1) | 7.66 ± 0.05 | 6.80 ± 0.08 | – | – | –
CC[C@H](C)[C@@H]1NC(=O)[C@H](Cc2ccccc2)NC(=O)[C@@H](Cc2ccccc2)NC(=O)CC2(CCCCC2)SSC[C@@H](C(=O)N2CCC[C@H]2C(=O)N[C@@H](CCCNC(=N)N)C(=O)N[C@H](C(N)=O)[C@@H](C)O)NC(=O)[C@H](CC(N)=O)NC1=O [Thr(NH2), [1-(beta-mercapto-beta,beta-cyclopentamethylenepropionic acid), 2-D-phenylalanine, 4-isoleucine, 9-threoinamide]-arginine vasopressin] ([dF]FINCPRT-NH2; linker N-5 via X1) | – | – | – | – | Anti-ADH Potency pA2 ([1]; Table 2): 7.39 ± 0.04; Anti-VP Potency pA2 ([2]; Table 2): 7.64 ± 0.11
COc1ccc(C[C@@H]2NC(=O)CC3(CCCCC3)SSC[C@@H](C(=O)N3CCC[C@H]3C(=O)N[C@@H](CCCNC(=N)N)C(N)=O)NC(=O)[C@H](CC(N)=O)NC(=O)[C@H](CCC(N)=O)NC(=O)[C@H](Cc3ccccc3)NC2=O)cc1 [desGly^9 d(CH2)5 [Tyr(Me)^2]AVP, [1-(beta-mercapto-beta,beta-cyclopentamethylenepropionic acid), 2-(O-methyl)tyrosine, 9-desglycine]-arginine vasopressin] (Y(Me)FQNCPR-NH2; linker N-5 via X1) | – | – | ~ 6.1 | 8.44 ± 0.10 | –
CC[C@H](C)[C@@H]1NC(=O)[C@H](Cc2ccccc2)NC(=O)[C@@H](Cc2ccccc2)NC(=O)CC2(CCCCC2)SSC[C@@H](C(=O)N2CCC[C@H]2C(=O)N[C@@H](CCCNC(=N)N)C(=O)NCC(N)=O)NC(=O)[C@H](CC(N)=O)NC1=O [d(CH2)5 [D-Phe^2,Ile^ 4]AVP, [1-(beta-mercapto-beta,beta-cyclopentamethylenepropionic acid), 2-D-phenylalanine, 4-isoleucine]-arginine vasopressin, reference compound] ([dF]FINCPRG-NH2; linker N-5 via X1) | – | – | 8.24 ± 0.08 | 7.86 ± 0.05 | –
COc1ccc(C[C@@H]2NC(=O)CC3(CCCCC3)SSC[C@@H](C(=O)N3CCC[C@H]3C(=O)N[C@@H](CCCNC(=N)N)C(=O)NCCN)NC(=O)[C@H](CC(N)=O)NC(=O)[C@H](CCC(N)=O)NC(=O)[C@H](Cc3ccccc3)NC2=O)cc1 [[1(beta-mercapto-beta,beta-cyclopentamethylenepropionic acid), 2-(O-methyl)tyrosine, 8-arginine-N-(beta-amino)ethylamide, 9-desglycinamide] vasopressin] (Y(Me)FQNCPR-Ethylenediamine; linker N-5 via X1) | ~ 6.3 | 8.75 ± 0.06 | – | – | –
CC[C@H](C)[C@@H]1NC(=O)[C@H](Cc2ccccc2)NC(=O)[C@@H](Cc2ccccc2)NC(=O)CC2(CCCCC2)SSC[C@@H](C(=O)N2CCC[C@H]2C(=O)N[C@@H](CCCNC(=N)N)C(=O)N[C@@H](Cc2ccc(O)cc2)C(N)=O)NC(=O)[C@H](CC(N)=O)NC1=O [Tyr(NH2), [1-(beta-mercapto-beta,beta-cyclopentamethylenepropionic acid), 2-D-phenylalanine, 4-isoleucine, 9-tyrosinamide]-arginine vasopressin] ([dF]FINCPRY-NH2; linker N-5 via X1) | – | – | – | – | Anti-ADH Potency pA2 ([1]; Table 2): 7.85 ± 0.06; Anti-VP Potency pA2 ([2]; Table 2): 7.27 ± 0.05
CCOc1ccc(C[C@H]2NC(=O)CC3(CCCCC3)SSC[C@@H](C(=O)N3CCC[C@H]3C(=O)N[C@@H](CCCNC(=N)N)C(=O)NCC(=O)NCCN)NC(=O)[C@H](CC(N)=O)NC(=O)[C@H]([C@@H](C)CC)NC(=O)[C@H](Cc3ccccc3)NC2=O)cc1 [[1-(beta-mercapto-beta,beta-cyclopentamethylenepropionic acid), 2-D-(O-ethyl)tyrosine, 4-isoleucine, 9-glycine-N-(beta-amino)ethylamide]-arginine vasopressin] ([dY](Et)FINCPRG-Ethylenediamine; linker N-5 via X1) | 7.86 ± 0.04 | 8.07 ± 0.03 | – | – | –
CC[C@H](C)[C@@H]1NC(=O)[C@H](Cc2ccccc2)NC(=O)[C@@H](Cc2ccccc2)NC(=O)CC2(CCCCC2)SSC[C@@H](C(=O)N2CCC[C@H]2C(=O)N[C@@H](CCCNC(=N)N)C(=O)NCC(=O)NCCN)NC(=O)[C@H](CC(N)=O)NC1=O [[1-(beta-mercapto-beta,beta-cyclopentamethylenepropionic acid), 2-D-phenylalanine, 4-isoleucine, 9-glycine-N-(beta-amino)ethylamide]-arginine vasopressin] ([dF]FINCPRG-Ethylenediamine; linker N-5 via X1) | 8.10 ± 0.10 | 7.58 ± 0.07 | – | – | –
